Here are results for 3 molecules from ChEMBL document CHEMBL1201862, “PubChem BioAssay data set” (2004).

Test systems include DMS-114; XF498; KM-20L2; LXFL 529; DLD-1; M19-MEL; RXF 631; SNB-78; HOP-18.
Holding throughout (assay): DTP human tumour cell line panel, 48 h

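Growth conditions: 96-well plates. Treatment: test compound, 48 hours, 5 concentrations. Analysis: linear interpolation between bracketing concentrations; unreached endpoints set to highest concentration. The concentration for 50% growth inhibition is given as GI50.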 Active and inactive are the calls of the source. No stated cut-off is given here; in the data, active = GI50 up to about 1.1 µM and inactive = higher.

`Cc1ccc(S(=O)(=O)N/N=C(\c2nc3ccc(Cl)cc3nc2O)C(O)c2cccc([N+](=O)[O-])c2)cc1` (configuration not stated): the GI50 with DMS-114, in the assay on XF498, with KM-20L2, in the assay with LXFL 529, with DLD-1 and in the assay with M19-MEL was > 100000 nM (inactive) throughout. Also, the GI50 with RXF 631, in the assay on SNB-78 and in the assay on HOP-18 was > 100000 nM (inactive) throughout.

Regarding `CNCCCNc1c2ccccc2nc2cccc([N+](=O)[O-])c12`, the GI50 (in general, the concentration at which growth is held to half of that of the control) was 2.21 nM (active) in the assay on DMS-114; 2.47 nM (active) with XF498; 4.16 nM (active) with KM-20L2; 6.65 nM (active) in the assay with LXFL 529; 3.03 nM (active) with DLD-1; 3.87 nM (active) in the assay with M19-MEL. In addition, the results for the GI50 in the assay on RXF 631, in the assay with SNB-78 and in the assay with HOP-18 were 28.6 nM (active), 2.33 nM (active) and 23.7 nM (active), respectively.

Consider `COc1cc(/C=C\c2ccc(Br)cc2)cc(OC)c1OC`, for which the GI50 in the assay on DMS-114 was 0.986 nM (active); in the assay on XF498 it was 0.678 nM (active); with KM-20L2 it was 0.33 nM (active); in the assay with LXFL 529 it was 0.891 nM (active); in the assay on DLD-1 it was 3.24 nM (active); with M19-MEL, 5.24 nM (active). For the same molecule, the GI50 with RXF 631 was 10 nM (active); with SNB-78, 0.305 nM (active); in the assay on HOP-18, 0.721 nM (active).
